Experimental findings from ChEMBL document CHEMBL1141438, “Securinega alkaloids from the wood of Securinega suffruticosa var. amamiensis” (J Nat Prod, 2007) are described below.

Converted amounts (≈) assume the structure as drawn.

One experiment has as its system KB. The experiment in a line: Cytotoxicity against human KB cells. The class given is functional, cell-based.
The next experiment has as its system L1210. Briefly: Cytotoxicity against mouse L1210 cells. The class given is functional, cell-based.

On to `O=C1C=C2C=C[C@@H]3C[C@@]2(O1)[C@H]1CCCCN31` [SECURININE], for which the IC50 – broadly, the concentration needed to halve the response being measured – in the experiment on KB stood at 2.2 µg/mL (≈ 10.1 µM); in the experiment on L1210, 1.9 µg/mL (≈ 8.74 µM).
The like results for `CO[C@H]1CC2=CC(=O)O[C@@]23C[C@@H]1N1CCCC[C@@H]13` [SECURINEGA AMAMINE C] were, in that order, greater than 5 µg/mL and greater than 5 µg/mL.
As for `O=C1C=C2C=C[C@@H]3C[C@@]2(O1)[C@H]1C[C@@H](O)CCN31`, the IC50 in the experiment on KB came out at 3 µg/mL (≈ 12.9 µM); in the experiment on L1210, 3.7 µg/mL (≈ 15.9 µM).
For the compound `CO[C@H]1CCN2O[C@@H]3C=CC4=CC(=O)O[C@]4(C3)[C@@H]2C1` [SECURINEGA AMAMINE D], the IC50 in the experiment on KB and in the experiment with L1210 was greater than 5 µg/mL in each case.
Turning to `CO[C@H]1CCN2[C@@H](C1)[C@]13C[C@H]2[C@@H](OC)CC1=CC(=O)O3` [SECURINEGA AMAMINE B], the IC50 in the experiment on KB and in the experiment with L1210 was greater than 5 µg/mL each time.
On to `O=C1C=C2C=C[C@@H]3C[C@@]2(O1)[C@@H]1CCCCN1O3` [PHYLLANTIDINE], for which the IC50 in the experiment with KB and in the experiment on L1210 was greater than 5 µg/mL in each case.
